{
  "source": "ChEMBL document CHEMBL1132753",
  "about": "“Structure-activity relationship study of asiatic acid derivatives against beta amyloid (A beta)-induced neurotoxicity” (2000)",
  "test_system": "B103 cell line",
  "assay": "In vitro percent protective effect against Amyloid Beta(A beta)-induced neurotoxicity in B103 cells",
  "format": "functional, Rattus norvegicus",
  "parameters": "concentration or dose not given beside the values",
  "data": [
    {"smiles": "C[C@@H]1CC[C@]2(C(=O)O)CC[C@]3(C)C(=CCC4[C@@]5(C)CC(=O)[C@H](O)[C@@](C)(CO)C5CC[C@]43C)C2[C@H]1C", "note": "(stereo partly specified)", "values": [
      {"measurement": "Protection", "value": 50, "unit": "%"}
    ]},
    {"smiles": "CC(=O)O[C@@H]1C[C@@]2(C)C(CC[C@]3(C)C2CC=C2C4[C@@H](C)[C@H](C)CC[C@]4(C(=O)O)CC[C@]23C)[C@](C)(CO)[C@H]1O", "note": "(stereo partly specified)", "values": [
      {"measurement": "Protection", "value": 22, "unit": "%"}
    ]},
    {"smiles": "CCCCCCCCOCOC(=O)[C@]12CC[C@@H](C)[C@H](C)C1C1=CCC3[C@@]4(C)CC(O)[C@H](O)[C@@](C)(CO)C4CC[C@@]3(C)[C@]1(C)CC2", "note": "(stereo partly specified)", "values": [
      {"measurement": "Protection", "value": 22, "unit": "%"}
    ]},
    {"smiles": "C[C@@H]1CC[C@]2(C(=O)O)CC[C@]3(C)C(=CCC4[C@@]5(C)C[C@@H](O)[C@@H]6OC(C)(C)OC[C@@]6(C)C5CC[C@]43C)C2[C@H]1C", "note": "(stereo partly specified)", "values": [
      {"measurement": "Protection", "value": 66, "unit": "%"}
    ]},
    {"smiles": "COC(=O)[C@]12CC[C@@H](C)[C@H](C)C1C1=CCC3[C@@]4(C)C[C@@H](O)[C@H](O)[C@@](C)(CO)C4CC[C@@]3(C)[C@]1(C)CC2", "note": "(stereo partly specified)", "values": [
      {"measurement": "Protection", "value": 58, "unit": "%"}
    ]},
    {"smiles": "C[C@@H]1CC[C@]2(C(=O)O)CC[C@]3(C)C(=CCC4[C@@]5(C)CCCC(C)(C)C5CC[C@]43C)C2[C@H]1C", "note": "(stereo partly specified)", "values": [
      {"measurement": "Protection", "value": 40, "unit": "%"}
    ]},
    {"smiles": "C[C@@H]1CC[C@]2(C(=O)OC3CCCCO3)CC[C@]3(C)C(=CCC4[C@@]5(C)C[C@@H](O)[C@H](O)[C@@](C)(CO)C5CC[C@]43C)C2[C@H]1C", "note": "(stereo partly specified)", "values": [
      {"measurement": "Protection", "value": 92, "unit": "%"}
    ]},
    {"smiles": "C[C@H]1[C@H](C)CC[C@]2(C(=O)O)CC[C@]3(C)C(=CC[C@@H]4[C@@]5(C)CC[C@H](O)[C@@](C)(CO)[C@@H]5CC[C@]43C)[C@H]12", "values": [
      {"measurement": "Protection", "value": 87, "unit": "%"}
    ]},
    {"smiles": "C[C@H]1[C@H](C)CC[C@]2(C(=O)O)CC[C@]3(C)C(=CC[C@@H]4[C@@]5(C)C[C@@H](O)[C@H](O)[C@@](C)(CO)[C@@H]5CC[C@]43C)[C@H]12", "note": "[ASIATIC ACID]", "values": [
      {"measurement": "Protection", "value": 97, "unit": "%"}
    ]},
    {"smiles": "C[C@H]1[C@H](C)CC[C@]2(C(=O)O[C@@H]3O[C@H](CO[C@@H]4O[C@H](CO)[C@@H](O[C@@H]5O[C@H](C)[C@H](O)[C@@H](O)[C@H]5O)[C@H](O)[C@H]4O)[C@@H](O)[C@H](O)[C@H]3O)CC[C@]3(C)C(=CC[C@@H]4[C@@]5(C)C[C@@H](O)[C@H](O)[C@@](C)(CO)[C@@H]5CC[C@]43C)[C@H]12", "note": "[ASIATICOSIDE]", "values": [
      {"measurement": "Protection", "value": 24, "unit": "%"}
    ]},
    {"smiles": "C[C@H]1[C@H](C)CC[C@]2(C(=O)O)CC[C@]3(C)C(=CC[C@@H]4[C@@]5(C)C[C@@H](O)[C@H](O)[C@@](C)(CO)[C@@H]5[C@H](O)C[C@]43C)[C@H]12", "note": "[MADECASSIC ACID]", "values": [
      {"measurement": "Protection", "value": 56, "unit": "%"}
    ]}
  ]
}
